Read-outs that look alike come from different tables or passages of the source.
How the values were obtained:
TYK1/LTK = TYK1/LTK (Homo sapiens, UniProt P29376); assay: HotSpot kinase assay; conditions: read-out: % Enzyme Activity (relative to DMSO control), 10 uM
MLCK/MYLK = MLCK/MYLK (Homo sapiens, UniProt Q15746); assay: HotSpot kinase assay; conditions: read-out: % Enzyme Activity (relative to DMSO control), 10 uM
Excerpt: (§1) Additionally, a 10-dose dilution series of staurosporine and other enzyme-appropriate compounds were included as positive control inhibitors.

KHS/MAP4K5 = KHS/MAP4K5 (Homo sapiens, UniProt Q9Y4K4); assay: HotSpot kinase assay; conditions: read-out: % Enzyme Activity (relative to DMSO control), 10 uM
PIM2 = PIM2 (Homo sapiens, UniProt Q9P1W9); assay: HotSpot kinase assay; conditions: read-out: % Enzyme Activity (relative to DMSO control), 10 uM
Excerpt: as §1

PKCepsilon = PKCepsilon (Homo sapiens, UniProt Q02156); assay: HotSpot kinase assay; conditions: read-out: % Enzyme Activity (relative to DMSO control), 10 uM
Excerpt: as §1

EPHA6 = EPHA6 (Homo sapiens, UniProt Q9UF33); assay: HotSpot kinase assay; conditions: read-out: % Enzyme Activity (relative to DMSO control), 10 uM
PKA = PKA (Homo sapiens, UniProt P17612); assay: HotSpot kinase assay; conditions: read-out: % Enzyme Activity (relative to DMSO control), 10 uM
Excerpt: as §1

CAMK2d = CAMK2d (Homo sapiens, UniProt Q13557); assay: HotSpot kinase assay; conditions: read-out: % Enzyme Activity (relative to DMSO control), 10 uM
HPK1/MAP4K1 = HPK1/MAP4K1 (Homo sapiens, UniProt Q92918); assay: HotSpot kinase assay; conditions: read-out: % Enzyme Activity (relative to DMSO control), 10 uM
Excerpt: as §1

AKT3 = AKT3 (Homo sapiens, UniProt Q9Y243); assay: HotSpot kinase assay; conditions: read-out: % Enzyme Activity (relative to DMSO control), 10 uM
Sequence of AKT3 (Q9Y243 whole entry): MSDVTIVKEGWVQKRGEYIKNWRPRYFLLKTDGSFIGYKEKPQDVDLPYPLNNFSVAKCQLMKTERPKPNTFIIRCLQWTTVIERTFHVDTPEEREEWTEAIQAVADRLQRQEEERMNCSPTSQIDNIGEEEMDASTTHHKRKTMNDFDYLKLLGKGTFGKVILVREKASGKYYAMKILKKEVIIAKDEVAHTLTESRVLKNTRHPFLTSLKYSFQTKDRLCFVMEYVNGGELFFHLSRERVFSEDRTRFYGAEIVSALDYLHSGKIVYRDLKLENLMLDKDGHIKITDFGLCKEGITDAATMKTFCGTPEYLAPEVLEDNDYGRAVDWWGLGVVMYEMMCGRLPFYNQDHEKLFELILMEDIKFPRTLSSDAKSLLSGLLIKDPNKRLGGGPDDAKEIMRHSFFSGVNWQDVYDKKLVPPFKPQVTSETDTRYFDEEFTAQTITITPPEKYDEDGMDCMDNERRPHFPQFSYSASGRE

PHKg2 = PHKg2 (Homo sapiens, UniProt P15735); assay: HotSpot kinase assay; conditions: read-out: % Enzyme Activity (relative to DMSO control), 10 uM
Excerpt: as §1

LCK = LCK (Homo sapiens, UniProt P06239); assay: HotSpot kinase assay; conditions: read-out: % Enzyme Activity (relative to DMSO control), 10 uM
Sequence of LCK (P06239 whole entry): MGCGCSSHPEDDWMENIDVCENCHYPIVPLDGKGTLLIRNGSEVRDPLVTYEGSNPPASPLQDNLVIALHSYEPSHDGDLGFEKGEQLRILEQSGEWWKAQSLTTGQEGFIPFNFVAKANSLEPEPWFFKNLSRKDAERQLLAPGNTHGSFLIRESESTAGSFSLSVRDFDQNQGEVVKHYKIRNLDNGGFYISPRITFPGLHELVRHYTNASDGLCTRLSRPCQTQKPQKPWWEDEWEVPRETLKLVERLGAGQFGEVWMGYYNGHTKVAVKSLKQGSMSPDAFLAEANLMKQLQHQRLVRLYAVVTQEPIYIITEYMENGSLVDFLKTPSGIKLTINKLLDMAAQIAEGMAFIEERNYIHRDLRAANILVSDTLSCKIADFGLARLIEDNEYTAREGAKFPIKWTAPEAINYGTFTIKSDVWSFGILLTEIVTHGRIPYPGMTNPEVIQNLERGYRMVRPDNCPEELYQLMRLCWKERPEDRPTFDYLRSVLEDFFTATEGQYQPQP
Excerpt: as §1

GSK3a = GSK3a (Homo sapiens, UniProt P49840); assay: HotSpot kinase assay; conditions: read-out: % Enzyme Activity (relative to DMSO control), 10 uM
MLK1/MAP3K9 = MLK1/MAP3K9 (Homo sapiens, UniProt P80192); assay: HotSpot kinase assay; conditions: read-out: % Enzyme Activity (relative to DMSO control), 10 uM
Sequence of MLK1/MAP3K9 (P80192 whole entry): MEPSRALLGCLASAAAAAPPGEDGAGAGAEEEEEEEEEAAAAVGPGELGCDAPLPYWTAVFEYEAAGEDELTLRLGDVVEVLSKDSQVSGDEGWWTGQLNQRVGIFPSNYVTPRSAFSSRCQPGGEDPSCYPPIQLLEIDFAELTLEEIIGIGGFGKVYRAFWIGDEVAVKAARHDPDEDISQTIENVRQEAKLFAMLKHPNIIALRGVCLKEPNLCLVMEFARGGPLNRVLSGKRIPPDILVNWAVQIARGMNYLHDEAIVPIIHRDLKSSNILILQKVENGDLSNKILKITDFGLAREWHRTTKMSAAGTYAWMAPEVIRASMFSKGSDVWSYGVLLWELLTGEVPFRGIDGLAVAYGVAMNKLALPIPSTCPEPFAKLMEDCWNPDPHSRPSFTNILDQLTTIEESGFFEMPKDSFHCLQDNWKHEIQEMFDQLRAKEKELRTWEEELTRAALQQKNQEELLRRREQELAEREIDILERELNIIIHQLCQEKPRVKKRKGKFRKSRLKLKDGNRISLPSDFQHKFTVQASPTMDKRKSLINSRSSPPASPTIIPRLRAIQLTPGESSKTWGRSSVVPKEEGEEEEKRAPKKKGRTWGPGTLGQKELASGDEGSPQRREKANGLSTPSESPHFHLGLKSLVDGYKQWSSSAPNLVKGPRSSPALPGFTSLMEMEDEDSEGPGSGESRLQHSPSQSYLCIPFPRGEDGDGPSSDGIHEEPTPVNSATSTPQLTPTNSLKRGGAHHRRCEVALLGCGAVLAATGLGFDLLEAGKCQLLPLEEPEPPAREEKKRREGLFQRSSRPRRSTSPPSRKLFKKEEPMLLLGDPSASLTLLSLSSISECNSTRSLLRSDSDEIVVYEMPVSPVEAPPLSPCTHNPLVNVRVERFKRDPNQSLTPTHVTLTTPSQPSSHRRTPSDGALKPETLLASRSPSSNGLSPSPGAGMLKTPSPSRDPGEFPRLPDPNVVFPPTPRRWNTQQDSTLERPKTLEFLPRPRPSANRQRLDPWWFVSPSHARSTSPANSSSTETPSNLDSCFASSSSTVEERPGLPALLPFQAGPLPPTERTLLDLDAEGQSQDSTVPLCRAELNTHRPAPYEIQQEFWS
Excerpt: as §1

Aurora B = Aurora B (Homo sapiens, UniProt Q96GD4); assay: HotSpot kinase assay; conditions: read-out: % Enzyme Activity (relative to DMSO control), 10 uM
Sequence of Aurora B (Q96GD4 whole entry): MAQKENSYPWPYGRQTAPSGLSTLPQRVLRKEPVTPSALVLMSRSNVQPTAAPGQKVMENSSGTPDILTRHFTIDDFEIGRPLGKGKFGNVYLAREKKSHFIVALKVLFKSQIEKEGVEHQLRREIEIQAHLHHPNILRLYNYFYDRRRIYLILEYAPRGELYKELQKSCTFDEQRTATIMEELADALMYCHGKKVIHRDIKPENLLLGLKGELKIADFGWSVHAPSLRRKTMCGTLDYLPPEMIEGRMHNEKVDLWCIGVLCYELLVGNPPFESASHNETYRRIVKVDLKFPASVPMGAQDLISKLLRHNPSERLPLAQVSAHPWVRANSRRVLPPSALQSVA
Excerpt: as §1

PYK2 = PYK2 (Homo sapiens, UniProt Q14289); assay: HotSpot kinase assay; conditions: read-out: % Enzyme Activity (relative to DMSO control), 10 uM
Excerpt: as §1

SRPK2 = SRPK2 (Homo sapiens, UniProt P78362); assay: HotSpot kinase assay; conditions: read-out: % Enzyme Activity (relative to DMSO control), 10 uM
Excerpt: as §1

MKK7 = MKK7 (Homo sapiens, UniProt O14733); assay: HotSpot kinase assay; conditions: read-out: % Enzyme Activity (relative to DMSO control), 10 uM
TRKB = TRKB (Homo sapiens, UniProt Q16620); assay: HotSpot kinase assay; conditions: read-out: % Enzyme Activity (relative to DMSO control), 10 uM
STK33 = STK33 (Homo sapiens, UniProt Q9BYT3); assay: HotSpot kinase assay; conditions: read-out: % Enzyme Activity (relative to DMSO control), 10 uM
CK1d = CK1d (Homo sapiens, UniProt P48730); assay: HotSpot kinase assay; conditions: read-out: % Enzyme Activity (relative to DMSO control), 10 uM
ULK2 = ULK2 (Homo sapiens, UniProt Q8IYT8); assay: HotSpot kinase assay; conditions: read-out: % Enzyme Activity (relative to DMSO control), 10 uM
Excerpt: as §1

EPHA1 = EPHA1 (Homo sapiens, UniProt P21709); assay: HotSpot kinase assay; conditions: read-out: % Enzyme Activity (relative to DMSO control), 10 uM
Sequence of EPHA1 (P21709 26-976): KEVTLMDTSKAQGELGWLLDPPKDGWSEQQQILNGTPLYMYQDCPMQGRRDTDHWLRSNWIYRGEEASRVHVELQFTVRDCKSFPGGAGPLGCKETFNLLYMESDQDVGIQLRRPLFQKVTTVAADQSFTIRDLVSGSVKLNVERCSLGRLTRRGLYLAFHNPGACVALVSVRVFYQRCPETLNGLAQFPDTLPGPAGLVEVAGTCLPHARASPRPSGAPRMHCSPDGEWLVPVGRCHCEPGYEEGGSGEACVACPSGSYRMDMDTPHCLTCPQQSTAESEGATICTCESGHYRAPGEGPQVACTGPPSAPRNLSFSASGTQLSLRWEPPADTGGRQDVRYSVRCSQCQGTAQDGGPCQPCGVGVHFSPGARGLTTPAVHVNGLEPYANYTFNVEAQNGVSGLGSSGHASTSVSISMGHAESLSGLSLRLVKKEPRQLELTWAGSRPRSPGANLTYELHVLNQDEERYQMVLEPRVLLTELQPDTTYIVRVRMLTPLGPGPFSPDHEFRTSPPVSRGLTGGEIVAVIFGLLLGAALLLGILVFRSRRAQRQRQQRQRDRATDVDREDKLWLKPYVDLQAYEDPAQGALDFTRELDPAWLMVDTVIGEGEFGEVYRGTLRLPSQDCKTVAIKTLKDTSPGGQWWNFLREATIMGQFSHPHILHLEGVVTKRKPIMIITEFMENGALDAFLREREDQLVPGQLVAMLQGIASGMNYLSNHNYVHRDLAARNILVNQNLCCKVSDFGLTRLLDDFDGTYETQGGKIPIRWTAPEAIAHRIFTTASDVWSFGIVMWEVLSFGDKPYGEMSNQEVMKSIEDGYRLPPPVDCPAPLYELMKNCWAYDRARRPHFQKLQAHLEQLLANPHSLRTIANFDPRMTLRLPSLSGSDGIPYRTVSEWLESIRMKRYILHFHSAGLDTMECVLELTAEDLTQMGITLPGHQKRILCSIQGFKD

THP-1 macrophages = assay: cells; conditions: Homo sapiens, THP-1, 4 h
ALK6/BMPR1B = ALK6/BMPR1B (Homo sapiens, UniProt O00238); assay: HotSpot kinase assay; conditions: read-out: % Enzyme Activity (relative to DMSO control), 10 uM
Excerpt: as §1

HIPK4 = HIPK4 (Homo sapiens, UniProt Q8NE63); assay: HotSpot kinase assay; conditions: read-out: % Enzyme Activity (relative to DMSO control), 10 uM
EPHA3 = EPHA3 (Homo sapiens, UniProt P29320); assay: HotSpot kinase assay; conditions: read-out: % Enzyme Activity (relative to DMSO control), 10 uM
Excerpt: as §1

MEKK1 = MEKK1 (Homo sapiens, UniProt Q13233); assay: HotSpot kinase assay; conditions: read-out: % Enzyme Activity (relative to DMSO control), 10 uM
MLK3/MAP3K11 = MLK3/MAP3K11 (Homo sapiens, UniProt Q16584); assay: HotSpot kinase assay; conditions: read-out: % Enzyme Activity (relative to DMSO control), 10 uM
Excerpt: as §1

PKCg = PKCg (Homo sapiens, UniProt P05129); assay: HotSpot kinase assay; conditions: read-out: % Enzyme Activity (relative to DMSO control), 10 uM
Excerpt: as §1

ERBB2/HER2 = ERBB2/HER2 (Homo sapiens, UniProt P04626); assay: HotSpot kinase assay; conditions: read-out: % Enzyme Activity (relative to DMSO control), 10 uM
Excerpt: as §1

DYRK1/DYRK1A = DYRK1/DYRK1A (Homo sapiens, UniProt Q13627); assay: HotSpot kinase assay; conditions: read-out: % Enzyme Activity (relative to DMSO control), 10 uM
MELK = MELK (Homo sapiens, UniProt Q14680); assay: HotSpot kinase assay; conditions: read-out: % Enzyme Activity (relative to DMSO control), 10 uM
PKCeta = PKCeta (Homo sapiens, UniProt P24723); assay: HotSpot kinase assay; conditions: read-out: % Enzyme Activity (relative to DMSO control), 10 uM
Excerpt: as §1

CDK17/cyclin Y (PCTK2) = CDK17/cyclin Y (PCTK2) (Homo sapiens, UniProt Q00537); assay: HotSpot kinase assay; conditions: read-out: % Enzyme Activity (relative to DMSO control), 10 uM
Sequence of CDK17/cyclin Y (PCTK2) (Q00537 whole entry): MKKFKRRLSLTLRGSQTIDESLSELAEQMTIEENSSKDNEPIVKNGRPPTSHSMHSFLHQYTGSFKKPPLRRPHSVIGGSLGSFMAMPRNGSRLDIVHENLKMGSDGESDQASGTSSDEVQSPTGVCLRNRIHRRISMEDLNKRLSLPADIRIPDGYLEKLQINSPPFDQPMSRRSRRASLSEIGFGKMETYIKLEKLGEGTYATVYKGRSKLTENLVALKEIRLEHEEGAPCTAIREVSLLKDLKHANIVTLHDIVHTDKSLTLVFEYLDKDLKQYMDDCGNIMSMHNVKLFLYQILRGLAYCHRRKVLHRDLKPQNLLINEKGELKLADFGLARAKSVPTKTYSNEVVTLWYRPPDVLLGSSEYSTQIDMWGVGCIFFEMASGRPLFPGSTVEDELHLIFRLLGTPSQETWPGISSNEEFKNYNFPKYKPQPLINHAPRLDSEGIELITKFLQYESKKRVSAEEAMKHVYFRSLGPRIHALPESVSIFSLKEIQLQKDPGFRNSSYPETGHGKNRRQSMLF
Sequence of CDK17/cyclin Y (PCTK2) (Q8ND76 whole entry partner): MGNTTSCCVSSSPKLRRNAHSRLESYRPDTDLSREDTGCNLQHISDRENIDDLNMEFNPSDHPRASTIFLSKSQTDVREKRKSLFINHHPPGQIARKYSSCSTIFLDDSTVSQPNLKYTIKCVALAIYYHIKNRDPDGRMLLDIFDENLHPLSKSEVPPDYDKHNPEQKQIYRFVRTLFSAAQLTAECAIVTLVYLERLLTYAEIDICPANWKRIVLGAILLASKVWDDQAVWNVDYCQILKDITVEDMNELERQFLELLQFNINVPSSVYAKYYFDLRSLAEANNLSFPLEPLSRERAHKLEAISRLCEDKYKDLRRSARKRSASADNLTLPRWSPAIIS
Excerpt: as §1

DDR2 = DDR2 (Homo sapiens, UniProt Q16832); assay: HotSpot kinase assay; conditions: read-out: % Enzyme Activity (relative to DMSO control), 10 uM
RIPK5 = RIPK5 (Homo sapiens, UniProt Q6XUX3); assay: HotSpot kinase assay; conditions: read-out: % Enzyme Activity (relative to DMSO control), 10 uM
Excerpt: as §1

FYN = FYN (Homo sapiens, UniProt P06241); assay: HotSpot kinase assay; conditions: read-out: % Enzyme Activity (relative to DMSO control), 10 uM
Sequence of FYN (P06241 whole entry): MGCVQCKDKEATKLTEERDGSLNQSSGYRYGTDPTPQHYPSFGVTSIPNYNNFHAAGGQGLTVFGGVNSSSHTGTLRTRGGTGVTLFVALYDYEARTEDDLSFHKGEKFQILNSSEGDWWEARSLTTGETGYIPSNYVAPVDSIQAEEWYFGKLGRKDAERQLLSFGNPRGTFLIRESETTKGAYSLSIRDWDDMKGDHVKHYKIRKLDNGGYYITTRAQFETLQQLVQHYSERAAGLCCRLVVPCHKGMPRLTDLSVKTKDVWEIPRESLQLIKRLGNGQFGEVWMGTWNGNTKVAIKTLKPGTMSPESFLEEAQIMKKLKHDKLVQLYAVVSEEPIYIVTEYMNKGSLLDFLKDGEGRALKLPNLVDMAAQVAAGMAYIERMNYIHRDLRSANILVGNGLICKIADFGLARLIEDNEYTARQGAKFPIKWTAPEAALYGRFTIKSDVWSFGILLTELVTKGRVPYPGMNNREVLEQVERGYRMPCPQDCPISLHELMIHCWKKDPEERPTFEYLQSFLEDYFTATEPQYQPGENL

ALK = ALK (Homo sapiens, UniProt Q9UM73); assay: HotSpot kinase assay; conditions: read-out: % Enzyme Activity (relative to DMSO control), 10 uM
Excerpt: as §1

SMILES: C#C[C@@](C)(c1ccc(Cl)cc1)c1csc(NC(=O)c2c(F)cc(N3CCNCC3)cc2F)n1 (stereo in doubt) [DF-003]
- remaining activity at 10 µM (TYK1/LTK): 105%
- remaining activity at 10 µM (MLCK/MYLK): 68.4%
- remaining activity at 10 µM (KHS/MAP4K5): 77.5%
- remaining activity at 10 µM (PIM2): 87.6%
- remaining activity at 10 µM (PKCepsilon): 81.6%
- remaining activity at 10 µM (EPHA6): 79.3%
- remaining activity at 10 µM (PKA): 195%
- remaining activity at 10 µM (CAMK2d): 7.88%
- remaining activity at 10 µM (HPK1/MAP4K1): 83.3%
- remaining activity at 10 µM (AKT3): 83.1%
- remaining activity at 10 µM (PHKg2): 74.2%
- remaining activity at 10 µM (LCK): 121%
- remaining activity at 10 µM (GSK3a): 195%
- remaining activity at 10 µM (MLK1/MAP3K9): 79.7%
- remaining activity at 10 µM (Aurora B): 76.5%
- remaining activity at 10 µM (PYK2): 129%
- remaining activity at 10 µM (SRPK2): 126%
- remaining activity at 10 µM (MKK7): 103%
- remaining activity at 10 µM (TRKB): 74.4%
- remaining activity at 10 µM (STK33): 93.9%
- remaining activity at 10 µM (CK1d): 81.5%
- remaining activity at 10 µM (ULK2): 86%
- remaining activity at 10 µM (EPHA1): 119%
- IC50 (THP-1 macrophages; read-out: IC50, DF-006-induced CXCL8 upregulation): 6.5 nM
- IC50 (THP-1 macrophages; read-out: IC50, DF-006-induced TNF upregulation): 8 nM
- remaining activity at 10 µM (ALK6/BMPR1B): 123%
- remaining activity at 10 µM (HIPK4): 73.6%
- remaining activity at 10 µM (EPHA3): 117%
- remaining activity at 10 µM (MEKK1): 99.9%
- remaining activity at 10 µM (MLK3/MAP3K11): 77.8%
- remaining activity at 10 µM (PKCg): 93.5%
- remaining activity at 10 µM (ERBB2/HER2): 95.9%
- remaining activity at 10 µM (DYRK1/DYRK1A): 98.5%
- remaining activity at 10 µM (MELK): 96.6%
- remaining activity at 10 µM (PKCeta): 75.3%
- remaining activity at 10 µM (CDK17/cyclin Y (PCTK2)): 82.4%
- remaining activity at 10 µM (DDR2): 84.6%
- remaining activity at 10 µM (RIPK5): 82%
- remaining activity at 10 µM (FYN): 98.7%
- remaining activity at 10 µM (ALK): 115%

Source: publication PMC12420824, “Discovery of a selective alpha-kinase 1 inhibitor for the rare genetic disease ROSAH syndrome” (Nature Communications, 2025)
